Data from patent publication US20260042764A1, “COMPOSITIONS AND METHODS FOR INHIBITION OF KRAS” (TheRas, Inc., priority 2022, published 2026).
pIC50: −log10 of the molar value.

Assays:
[1] = target: T1, Avi-KRAS G12D (2-169) GTP/RAF1 RBD-3xFLAG (51-131) (Homo sapiens, UniProt P01116, G12D); assay: Raf1-KRAS G12D-GTP disruption HTRF assay (Biological Example 3); format: binding; conditions: KRAS G12D, GTP-loaded
T1 construct: Avi-KRAS G12D (2-169)
Method: (§1) Biological Example 3: Disrupting RAS-Effector Binding HTRF Assay
(§2) A protein:protein interaction (PPI) Homogeneous Time Resolved Fluorescence (HTRF) assay was used to determine the effectiveness of compounds in disrupting KRAS protein and effector (RAF1) binding.
(§3) The HTRF assay used the following reagents and proteins: (i) 50 nM Avi-KRAS G12D (2-169) GTP/RAF1 RBD-3xFLAG (51-131): (ii) 50 nM Avi-KRAS G12C (2-169) GTP/RAF1 RBD-3xFLAG (51-131): (iii) 50 nM Avi-KRAS G12V (2-169) GTP/RAF1 RBD-3xFLAG (51-131); (iv) 50 nM Avi-KRAS WT (2-169) GTP/RAF1 RBD-3xFLAG (51-131); and (v) 75 nM 3xFLAG-RAF1 RBD (51-131)-Avi. The assay buffer included: 50 mM Tris pH 7.5 (Invitrogen, 15567-027), 100 mM NaCl (Sigma, S5150-IL), 5 mM MgCl2 (Sigma, 63069), 0.1% BSA (Sigma, A7030), 0.01% Tween 20 (Sigma, P7949), 10% DMSO (Cell Signaling, 12611). The bead buffer included: 50 mM Tris pH 7.5 (Invitrogen, 15567-027), 0.01% Tween 20 (Sigma, P7949). An assay volume of 20 μL was used in a 384 well plate-low volume format. Compound titration: 30-0.005 μM, 3x dilution series.
(§4) The HTRF assay employed the following protocol:
(§5) Compounds were dispensed in assay plate (384-well, Grenier Bio-One #784075) using Echo (model 555) with dose response settings: 200 nL final volume, titration from 30 μM as a 10-point dilution series. Proteins and HTRF reagents were mixed and dispensed onto plates, 20 μL per well, and then incubated for 1 h at room temperature, with 700 rpm shaking.
(§6) Plates were analyzed on an Envision plate reader using the following setting: Excitation 320 nm, Bandwidth 75 nm; Emission 615 nm, Bandwidth 85 nm; Gain 100%; Flashes 100; Lag 60 μs. Data was reported as percentage of activity, with DMSO as 100%. Data was plotted and analyzed using Prism 8.
(§7) The biochemical Raf1-KRAS G12D/G12V/G12C/WT-GTP disruption assay IC50 of selected compounds described herein are shown in Table 12.

SW620 cells (KRAS G12V) = assay: Cell-based pERK HTRF assay in SW620 cell (Biological Example 4); conditions: Homo sapiens, SW-620, SW620 (KRAS G12V) cells
Summary of the method: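 SW620 seeded in RPMI/10% FBS, next day dosed 4 h (top 1 μM, half-log, 9 pts, 0.25% DMSO). Lysed, pERK by d2/Eu cryptate HTRF, 4–24 h RT, 615 nm read.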

GP2d cells (KRAS G12D) = assay: Cell-based pERK HTRF assay in GP2d cell (Biological Example 2); conditions: GP2d, GP2d (KRAS G12D) cells
Summary of the method: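 Cells grown in DMEM with 10% FBS were exposed to compound for 60 min at 0.25% DMSO, using a 9-point half-log series starting at 1 μM or 100 nM. Lysates were then mixed with d2 and Eu cryptate antibodies for 4–24 h at room temperature, and pERK was read by HTRF.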

[2] = target: T2, Avi-KRAS G12C (2-169) GTP/RAF1 RBD-3xFLAG (51-131) (Homo sapiens, UniProt P01116, G12C); assay: Raf1-KRAS G12C-GTP disruption HTRF assay (Biological Example 3); format: binding; conditions: KRAS G12C, GTP-loaded
T2 construct: Avi-KRAS G12C (2-169)
Method: as §1, §2, §3, §4, §5, §6, §7

[3] = target: T3, Avi-KRAS WT (2-169) GTP/RAF1 RBD-3xFLAG (51-131) (Homo sapiens, UniProt P01116); assay: Raf1-KRAS WT-GTP disruption HTRF assay (Biological Example 3); format: binding; conditions: KRAS WT, GTP-loaded
T3 construct: Avi-KRAS WT (2-169)
Method: as §1, §2, §3, §4, §5, §6, §7

[4] = target: T4, Avi-KRAS G12V (2-169) GTP/RAF1 RBD-3xFLAG (51-131) (Homo sapiens, UniProt P01116, G12V); assay: Raf1-KRAS G12V-GTP disruption HTRF assay (Biological Example 3); format: binding; conditions: KRAS G12V, GTP-loaded
T4 construct: Avi-KRAS G12V (2-169)
Method: as §1, §2, §3, §4, §5, §6, §7

T4 sequence (P01116 2-169 isoform P01116-2 G12V): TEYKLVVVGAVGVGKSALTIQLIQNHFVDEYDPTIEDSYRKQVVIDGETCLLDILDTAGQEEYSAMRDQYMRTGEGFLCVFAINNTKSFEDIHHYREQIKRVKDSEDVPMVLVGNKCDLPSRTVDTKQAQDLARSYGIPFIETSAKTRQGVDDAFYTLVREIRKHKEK
T2 sequence (P01116 2-169 isoform P01116-2 G12C): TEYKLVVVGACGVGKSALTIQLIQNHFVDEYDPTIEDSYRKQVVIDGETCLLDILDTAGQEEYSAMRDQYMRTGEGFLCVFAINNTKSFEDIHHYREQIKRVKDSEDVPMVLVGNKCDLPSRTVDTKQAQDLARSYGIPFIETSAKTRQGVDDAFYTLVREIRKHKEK
T1 sequence (P01116 2-169 isoform P01116-2 G12D): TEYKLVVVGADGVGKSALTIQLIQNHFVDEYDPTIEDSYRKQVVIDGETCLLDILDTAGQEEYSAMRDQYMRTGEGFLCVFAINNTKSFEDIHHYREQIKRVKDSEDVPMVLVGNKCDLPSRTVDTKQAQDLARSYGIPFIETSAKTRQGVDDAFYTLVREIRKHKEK
T3 sequence (P01116 2-169 isoform P01116-2): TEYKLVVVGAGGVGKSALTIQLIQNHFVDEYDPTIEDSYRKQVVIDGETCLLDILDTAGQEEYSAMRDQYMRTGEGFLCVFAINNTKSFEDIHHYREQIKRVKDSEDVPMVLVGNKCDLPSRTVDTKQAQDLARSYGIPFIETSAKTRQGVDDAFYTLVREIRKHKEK

SMILES | pIC50 [1] | pIC50 (SW620 cells (KRAS G12V)) | pIC50 (GP2d cells (KRAS G12D)) | pIC50 [2] | pIC50 [3] | pIC50 [4]
CCN(c1nc(OC[C@@]23CCCN2C[C@H](F)C3)nc2c(F)c(-c3ccc(F)c4sc(N)c(C#N)c34)c(C(F)(F)F)cc12)[C@H]1CCN(C(=O)N2CC(F)C2)[C@H]1C (atropisomer, axis not shown) [Compound 818] | 5.00 to 6.00 | > 7.00 | > 7.00 | 5.00 to 6.00 | 5.00 to 6.00 | 5.00 to 6.00
CCN(c1nc(OC[C@@]23CCCN2C[C@H](F)C3)nc2c(F)c(-c3ccc(F)c4sc(N)c(C#N)c34)c(C(F)(F)F)cc12)[C@H]1CCN(C(=O)O[C@H]2CCCOC2)C1 (atropisomer, axis not shown) [Compound 822] | 6.00 to 7.00 | > 7.00 | > 7.00 | 6.00 to 7.00 | 6.00 to 7.00 | 6.00 to 7.00
CCN(c1nc(OC[C@@]23CCCN2C[C@H](F)C3)nc2c(F)c(-c3ccc(F)c4sc(N)c(C#N)c34)c(C(F)(F)F)cc12)[C@H]1C[C@H]2[C@@H](C)OC(=O)N2C1 (atropisomer, axis not shown) [Compound 823] | 6.00 to 7.00 | > 7.00 | > 7.00 | 6.00 to 7.00 | 6.00 to 7.00 | 6.00 to 7.00
CCN(c1nc(OC[C@@]23CCCN2C[C@H](F)C3)nc2c(F)c(-c3ccc(F)c4sc(N)c(C#N)c34)c(C(F)(F)F)cc12)[C@H]1CCN(C(=O)O[C@@H]2CCOC2)[C@@H]1C (atropisomer, axis not shown) [Compound 824] | 6.00 to 7.00 | > 7.00 | > 7.00 | 6.00 to 7.00 | 6.00 to 7.00 | 6.00 to 7.00
CCN(c1nc(OC[C@@]23CCCN2C[C@H](F)C3)nc2c(F)c(-c3ccc(F)c4sc(N)c(C#N)c34)c(C(F)(F)F)cc12)[C@H]1CCN(C(=O)OC2CCOCC2)[C@@H]1C (atropisomer, axis not shown) [Compound 825] | 6.00 to 7.00 | > 7.00 | > 7.00 | 6.00 to 7.00 | 6.00 to 7.00 | 6.00 to 7.00
CO[C@H](C)C(=O)N1CC[C@H](N(c2nc(OC[C@@]34CCCN3C[C@H](F)C4)nc3c(F)c(-c4ccc(F)c5sc(N)c(C#N)c45)c(C(F)(F)F)cc23)C2CC2)C1 (atropisomer, axis not shown) [Compound 826] | 6.00 to 7.00 | > 7.00 | > 7.00 | 5.00 to 6.00 | 5.00 to 6.00 | 5.00 to 6.00
CCN(c1nc(OC[C@@]23CCCN2C[C@H](F)C3)nc2c(F)c(-c3ccc(F)c4sc(N)c(C#N)c34)c(C(F)(F)F)cc12)[C@@H]1CC[C@@H](C(=O)N(C)C)C1 (atropisomer, axis not shown) [Compound 827] | 5.00 to 6.00 | > 7.00 | > 7.00 | 5.00 to 6.00 | 5.00 to 6.00 | 5.00 to 6.00
CN(C)C(=O)N1CC[C@H](N(CCF)c2nc(OC[C@@]34CCCN3C[C@H](F)C4)nc3c(F)c(-c4ccc(F)c5sc(N)c(C#N)c45)c(C(F)(F)F)cc23)C1 (atropisomer, axis not shown) [Compound 828] | 6.00 to 7.00 | 6.00 to 7.00 | > 7.00 | 6.00 to 7.00 | 5.00 to 6.00 | 6.00 to 7.00
COC(=O)N1CC[C@H](N(CCF)c2nc(OC[C@@]34CCCN3C[C@H](F)C4)nc3c(F)c(-c4ccc(F)c5sc(N)c(C#N)c45)c(C(F)(F)F)cc23)C1 (atropisomer, axis not shown) [Compound 829] | 6.00 to 7.00 | > 7.00 | > 7.00 | 6.00 to 7.00 | 5.00 to 6.00 | 6.00 to 7.00
CCN(c1nc(OC[C@@]23CCCN2C[C@H](F)C3)nc2c(F)c(-c3ccc(F)c4sc(N)c(C#N)c34)c(C(F)(F)F)cc12)[C@H]1CCN(C(=O)OC2CC(F)(F)C2)C1 (atropisomer, axis not shown) [Compound 830] | 6.00 to 7.00 | > 7.00 | > 7.00 | 6.00 to 7.00 | 6.00 to 7.00 | 6.00 to 7.00
CCN(c1nc(OC[C@@]23CCCN2C[C@H](F)C3)nc2c(F)c(-c3ccc(F)c4sc(N)c(C#N)c34)c(C(F)(F)F)cc12)[C@H]1CCN(C(=O)N2CC(F)(F)C2)C1 (atropisomer, axis not shown) [Compound 831] | 6.00 to 7.00 | > 7.00 | > 7.00 | 6.00 to 7.00 | 6.00 to 7.00 | 6.00 to 7.00
CCN(c1nc(OC[C@@]23CCCN2C[C@H](F)C3)nc2c(F)c(-c3ccc(F)c4sc(N)c(C#N)c34)c(C(F)(F)F)cc12)[C@H]1CCN(C(=O)c2coc(C)n2)C1 (atropisomer, axis not shown) [Compound 832] | ≥ 7.00 | > 7.00 | > 7.00 | ≥ 7.00 | 6.00 to 7.00 | ≥ 7.00
CCN(c1nc(OC[C@@]23CCCN2C[C@H](F)C3)nc2c(F)c(-c3ccc(F)c4sc(N)c(C#N)c34)c(C(F)(F)F)cc12)[C@H]1CCN(C(=O)C2COC2)[C@@H]1C (atropisomer, axis not shown) [Compound 833] | ≥ 7.00 | > 7.00 | > 7.00 | 6.00 to 7.00 | 6.00 to 7.00 | 6.00 to 7.00
CCN(c1nc(OC[C@@]23CCCN2C[C@H](F)C3)nc2c(F)c(-c3ccc(F)c4sc(N)c(C#N)c34)c(C(F)(F)F)cc12)[C@H]1CCN(C(=O)O[C@@H]2CO[C@H]3OCC[C@H]32)C1 (atropisomer, axis not shown) [Compound 834] | ≥ 7.00 | > 7.00 | > 7.00 | ≥ 7.00 | 6.00 to 7.00 | ≥ 7.00
CCN(c1nc(OC[C@@]23CCCN2C[C@H](F)C3)nc2c(F)c(-c3ccc(F)c4sc(N)c(C#N)c34)c(C(F)(F)F)cc12)[C@H]1CCN(C(=O)OCC2COC2)[C@@H]1C (atropisomer, axis not shown) [Compound 835] | 6.00 to 7.00 | > 7.00 | > 7.00 | ≥ 7.00 | 5.00 to 6.00 | 6.00 to 7.00
